Reference: US20100203043A1, “TREATMENT AND DIAGNOSIS OF METASTATIC PROSTATE CANCER WITH INHIBITORS OF EPIDERMAL GROWTH FACTOR RECEPTOR (EGFR)” (priority 2007, published 2010)

Test system: LNCaP cells
Test: Kinase activity profiling (PamChip peptide arrays) of LNCaP cells treated with synthetic androgen analog
Type: cell-based, human
Set-up: key to ZAP70_y492/y493 phosphopeptide fold change (log2) relative to LNCaP baseline / RASA_y460 phosphopeptide fold change (log2) relative to LNCaP baseline / RET_y1029 phosphopeptide fold change (log2) relative to LNCaP baseline / IRS2_y919 phosphopeptide fold change (log2) relative to LNCaP baseline / JAK1_y1022/y1023 phosphopeptide fold change (log2) relative to LNCaP baseline / LCK_y394 phosphopeptide fold change (log2) relative to LNCaP baseline / MET_y1230/y1234/y1235 phosphopeptide fold change (log2) relative to LNCaP baseline / PDPK1_y9 phosphopeptide fold change (log2) relative to LNCaP baseline / PDPK1_y373/y376 phosphopeptide fold change (log2) relative to LNCaP baseline / EPHB1_y778 phosphopeptide fold change (log2) relative to LNCaP baseline / ERBB2_y877 phosphopeptide fold change (log2) relative to LNCaP baseline / ERBB2_y1248 phosphopeptide fold change (log2) relative to LNCaP baseline / CDK2_t14/y_5 phosphopeptide fold change (log2) relative to LNCaP baseline / DDRl_y792/y796/y797 phosphopeptide fold change (log2) relative to LNCaP baseline / MAPK10 phosphopeptide fold change (log2) relative to LNCaP baseline / MAPK12_t183/y185 phosphopeptide fold change (log2) relative to LNCaP baseline / PECAM1_y713 phosphopeptide fold change (log2) relative to LNCaP baseline / PRRX2_y214 phosphopeptide fold change (log2) relative to LNCaP baseline / ANXA1_y20/t23 phosphopeptide fold change (log2) relative to LNCaP baseline / CD79A_y182/y188 phosphopeptide fold change (log2) relative to LNCaP baseline / CTTN1_y477/y483 phosphopeptide fold change (log2) relative to LNCaP baseline / CTTN1_y499 phosphopeptide fold change (log2) relative to LNCaP baseline / ENO2_y43 phosphopeptide fold change (log2) relative to LNCaP baseline / EPHA2_y772 phosphopeptide fold change (log2) relative to LNCaP baseline / EPHA7_y608/y614 phosphopeptide fold change (log2) relative to LNCaP baseline / EPOR_y368 phosphopeptide fold change (log2) relative to LNCaP baseline / EPOR_y426 phosphopeptide fold change (log2) relative to LNCaP baseline / FER_y714 phosphopeptide fold change (log2) relative to LNCaP baseline / FES_y713 phosphopeptide fold change (log2) relative to LNCaP baseline / FGFR2_y769 phosphopeptide fold change (log2) relative to LNCaP baseline / FGFR3_y760 phosphopeptide fold change (log2) relative to LNCaP baseline / FRK_y387 phosphopeptide fold change (log2) relative to LNCaP baseline / LAT_y255 phosphopeptide fold change (log2) relative to LNCaP baseline / EGFR_y1110 phosphopeptide fold change (log2) relative to LNCaP baseline / NTRK2_y702/y706/y707 phosphopeptide fold change (log2) relative to LNCaP baseline / PDGFRB_y579/y581 phosphopeptide fold change (log2) relative to LNCaP baseline / PDGFRB_y716 phosphopeptide fold change (log2) relative to LNCaP baseline / PIK3R1_y607/s608 phosphopeptide fold change (log2) relative to LNCaP baseline / PXN_y31 phosphopeptide fold change (log2) relative to LNCaP baseline / PXN_y118 phosphopeptide fold change (log2) relative to LNCaP baseline / TEC_y519 phosphopeptide fold change (log2) relative to LNCaP baseline / MST1R_y1353 phosphopeptide fold change (log2) relative to LNCaP baseline / MST1R_y1356/y1360 phosphopeptide fold change (log2) relative to LNCaP baseline / FAK_y576/y577 phosphopeptide fold change (log2) relative to LNCaP baseline / FAK2_y579/y580 phosphopeptide fold change (log2) relative to LNCaP baseline / LAT_y200 phosphopeptide fold change (log2) relative to LNCaP baseline: —: ‘-’ denotes that the change in peptide phosphorylation level was not found to be significant
Details: ‘androgenic’: LNCaP cells, 100 nM R1881, 48 h
Procedure: Cell culture conditions. The LNCaP and OHS cell lines were routinely held in RPMI 1640 medium supplemented with 10% fetal bovine serum (FBS) and 2.0 mM glutamine, defined as growth medium. Different ratios of LNCaP cells to OHS cells had been tested in a series of cocultures to find the optimal culturing conditions [Bratland et al., 2003]. Seventy-two hours before start of experimental incubations, LNCaP and OHS cells were seeded in a 10:1 ratio in RPMI containing 2% charcoal-treated FBS and glutamine. After 48 h, this medium was changed to RPMI containing 0.5% charcoal-treated FBS and glutamine, defined as experimental medium, for another 24 h before experimental incubations were started (at time 0). Monocultures of LNCaP cells were identically incubated prior to experimental incubations.
Monocultures of LNCaP, as well as LNCaP/OHS cocultures, were seeded in a total number of 1.0×10^6 cells in 75 cm2 cell flasks and invariably held in 10 ml medium throughout different incubations. At time 0 (start of the experimental incubations), monocultured LNCaP cells were refed with experimental medium supplemented with 100 nM R1881 (methyltrienolone; Life Science Products), a synthetic androgen analog, or with medium conditioned by OHS cells. The conditioned medium had been collected from OHS monocultures that had been seeded in a 10-fold higher number per volume medium compared to the corresponding cell number of the LNCaP/OHS cocultures, and grown for 48 h (relative to time 0) in experimental medium. This medium was subsequently diluted 1:10 in either fresh experimental medium or in medium obtained from standard LNCaP monocultures after 48 h of incubation (relative to time 0) in experimental medium, before the application onto monocultured LNCaP cells.
To be able to analyze LNCaP signaling pathways activated by direct contact with OHS cells, LNCaP cells were isolated from cocultures by immunomagnetic selection [Forus et al., 1999, Fodstad et al., 2001, Bruland et al., 2005, Tveito et al., 2007]. This rapid and simple procedure enables specific selection of target cells for further analytical applications. Subsequent multiplex profiling of kinase activity was performed using flow-through, porous microarrays with peptide substrates (PamChip® peptide arrays; PamGene International B.V., www.pamgene.com), a novel platform that allows rapid, real-time measurements of phosphopeptide signatures generated by the biological samples.
Androgens are critical regulators of prostate carcinoma progression. Most patients respond to androgen ablation therapy, but only temporarily, also at bone metastasis sites. Until recently, the regulatory program mediated by the androgen receptor in prostate cancer has been elusive [Dehm & Tindall, 2006]. To simulate the complex processes involved in aberrant activation of the androgen signaling axis upon disease progression of prostate cancer [Feldman & Feldman, 2001, Attard et al., 2006], our experimental setting included LNCaP cells treated with a synthetic androgen analog (R1881, 100 nM) to observe whether androgen receptor-mediated signaling pathways might be different from those activated by OHS-directed influence.
The LNCaP samples were given denotations in accordance with their biological context: ‘direct’ (cells from LNCaP/OHS cocultures), ‘paracrine 1’ (cells treated with OHS-conditioned medium mixed with fresh medium), ‘paracrine 2’ (cells treated with OHS-conditioned medium mixed with medium conditioned by LNCaP cells), and ‘androgenic’ (cells treated with the synthetic androgen analog), in addition to baseline (untreated reference cells).
To identify regulatory mechanisms underlying the affinity of prostate cancer to bone, the substrate phosphorylation state generated by each LNCaP entity (‘direct’, ‘paracrine’, ‘androgenic’) was calculated with respect to baseline. […]

C[C@]1(O)CC[C@H]2[C@@H]3CCC4=CC(=O)CCC4=C3C=C[C@@]21C [R1881, methyltrienolone]
ANXA1_y20/t23 phosphopeptide fold change (log2) relative to LNCaP baseline: — | CD79A_y182/y188 phosphopeptide fold change (log2) relative to LNCaP baseline: — | CDK2_t14/y_5 phosphopeptide fold change (log2) relative to LNCaP baseline: — | CHRNB1_y390 phosphopeptide fold change (log2) relative to LNCaP baseline: 1.57 fold change (log2) | CREBl_y134/s133 phosphopeptide fold change (log2) relative to LNCaP baseline: 1.47 fold change (log2) | CTTN1_y477/y483 phosphopeptide fold change (log2) relative to LNCaP baseline: — | CTTN1_y499 phosphopeptide fold change (log2) relative to LNCaP baseline: — | DDRl_y792/y796/y797 phosphopeptide fold change (log2) relative to LNCaP baseline: — | EGFR_y1110 phosphopeptide fold change (log2) relative to LNCaP baseline: — | EGFR_y1197 phosphopeptide fold change (log2) relative to LNCaP baseline: 1.94 fold change (log2) | ENO2_y43 phosphopeptide fold change (log2) relative to LNCaP baseline: — | EPHA2_y772 phosphopeptide fold change (log2) relative to LNCaP baseline: — | EPHA7_y608/y614 phosphopeptide fold change (log2) relative to LNCaP baseline: — | EPHB1_y778 phosphopeptide fold change (log2) relative to LNCaP baseline: — | EPOR_y368 phosphopeptide fold change (log2) relative to LNCaP baseline: — | EPOR_y426 phosphopeptide fold change (log2) relative to LNCaP baseline: — | ERBB2_y877 phosphopeptide fold change (log2) relative to LNCaP baseline: — | ERBB2_y1248 phosphopeptide fold change (log2) relative to LNCaP baseline: — | ERBB4_y1284 phosphopeptide fold change (log2) relative to LNCaP baseline: 3.31 fold change (log2) | FAK2_y579/y580 phosphopeptide fold change (log2) relative to LNCaP baseline: — | FAK_y576/y577 phosphopeptide fold change (log2) relative to LNCaP baseline: — | FER_y714 phosphopeptide fold change (log2) relative to LNCaP baseline: — | FES_y713 phosphopeptide fold change (log2) relative to LNCaP baseline: — | FGFR2_y769 phosphopeptide fold change (log2) relative to LNCaP baseline: — | FGFR3_y760 phosphopeptide fold change (log2) relative to LNCaP baseline: — | FRK_y387 phosphopeptide fold change (log2) relative to LNCaP baseline: — | GSK3B_y216 phosphopeptide fold change (log2) relative to LNCaP baseline: 1.15 fold change (log2) | IRS2_y919 phosphopeptide fold change (log2) relative to LNCaP baseline: — | JAK1_y1022/y1023 phosphopeptide fold change (log2) relative to LNCaP baseline: — | LAT_y200 phosphopeptide fold change (log2) relative to LNCaP baseline: — | LAT_y255 phosphopeptide fold change (log2) relative to LNCaP baseline: — | LCK_y394 phosphopeptide fold change (log2) relative to LNCaP baseline: — | LTK_y772/y776/y777 phosphopeptide fold change (log2) relative to LNCaP baseline: 1.20 fold change (log2) | MAPK10 phosphopeptide fold change (log2) relative to LNCaP baseline: — | MAPK12_t183/y185 phosphopeptide fold change (log2) relative to LNCaP baseline: — | MET_y1230/y1234/y1235 phosphopeptide fold change (log2) relative to LNCaP baseline: — | MST1R_y1353 phosphopeptide fold change (log2) relative to LNCaP baseline: — | MST1R_y1356/y1360 phosphopeptide fold change (log2) relative to LNCaP baseline: — | NTRK2_y702/y706/y707 phosphopeptide fold change (log2) relative to LNCaP baseline: — | PDGFRB_y579/y581 phosphopeptide fold change (log2) relative to LNCaP baseline: — | PDGFRB_y716 phosphopeptide fold change (log2) relative to LNCaP baseline: — | PDPK1_y9 phosphopeptide fold change (log2) relative to LNCaP baseline: — | PDPK1_y373/y376 phosphopeptide fold change (log2) relative to LNCaP baseline: — | PECAM1_y713 phosphopeptide fold change (log2) relative to LNCaP baseline: — | PFKFB1_s33 phosphopeptide fold change (log2) relative to LNCaP baseline: 1.36 fold change (log2) | PIK3R1_y607/s608 phosphopeptide fold change (log2) relative to LNCaP baseline: — | PRRX2_y214 phosphopeptide fold change (log2) relative to LNCaP baseline: — | PTPN11_y542 phosphopeptide fold change (log2) relative to LNCaP baseline: 2.94 fold change (log2) | PXN_y31 phosphopeptide fold change (log2) relative to LNCaP baseline: — | PXN_y118 phosphopeptide fold change (log2) relative to LNCaP baseline: — | RAF1_s337/s338/y339/y340 phosphopeptide fold change (log2) relative to LNCaP baseline: 1.14 fold change (log2) | RASA_y460 phosphopeptide fold change (log2) relative to LNCaP baseline: — | RB1_s807/s811 phosphopeptide fold change (log2) relative to LNCaP baseline: 3.07 fold change (log2) | RET_y1029 phosphopeptide fold change (log2) relative to LNCaP baseline: — | SYN1_s9 phosphopeptide fold change (log2) relative to LNCaP baseline: 1.20 fold change (log2) | TEC_y519 phosphopeptide fold change (log2) relative to LNCaP baseline: — | ZAP70_y492/y493 phosphopeptide fold change (log2) relative to LNCaP baseline: —
